In PubChem BioAssay AID248 (DTP/NCI, 2004):
Several values for one entry are separate records, joined by “and”; a condition that tells them apart may be missing. Equal entries are not always repeated. Inconclusive results and toxic doses are left out. No stated cut-off is given here; in the data, active means T/C of 150% or more; inactive means T/C below 125%.

Test system: L1210 leukemia ip in BDF1 mice, survival T/C
Assay: NCI In Vivo Anticancer Drug Screen. Data for tumor model L1210 Leukemia (intraperitoneal) in B6D2F1 (BDF1) mice
Details: endpoint: mean survival time, higher = longer survival
Method in brief: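 Transplanted-tumor mice were given test agent; controls received vehicle only. Survival readings from the two groups were divided (treated over control).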

[1] = dose: 100.0 mg/kg/injection, schedule: Q04DX003 (ip), vehicle: saline
[2] = dose: 100.0 mg/kg/injection, schedule: Q04DX003 (ip), vehicle: saline with Tween-80
[3] = dose: 200.0 mg/kg/injection, schedule: Q04DX003 (ip), vehicle: saline with Tween-80
[4] = dose: 400.0 mg/kg/injection, schedule: Q04DX003 (ip), vehicle: saline with Tween-80
[5] = dose: 100.0 mg/kg/injection, schedule: Q01DX009 (ip), vehicle: Klucel (hydroxypropylcellulose) (HPC)
[6] = dose: 100.0 mg/kg/injection, schedule: Q04DX003 (ip), vehicle: Klucel (hydroxypropylcellulose) (HPC)
[7] = dose: 200.0 mg/kg/injection, schedule: Q01DX009 (ip), vehicle: Klucel (hydroxypropylcellulose) (HPC)
[8] = dose: 200.0 mg/kg/injection, schedule: Q04DX003 (ip), vehicle: Klucel (hydroxypropylcellulose) (HPC)
[9] = dose: 400.0 mg/kg/injection, schedule: Q01DX009 (ip), vehicle: Klucel (hydroxypropylcellulose) (HPC)
[10] = dose: 400.0 mg/kg/injection, schedule: Q04DX003 (ip), vehicle: Klucel (hydroxypropylcellulose) (HPC)
[11] = dose: 50.0 mg/kg/injection, schedule: Q01DX009 (ip), vehicle: saline
[12] = dose: 100.0 mg/kg/injection, schedule: Q01DX009 (ip), vehicle: saline
[13] = dose: 100.0 mg/kg/injection, schedule: Q01DX009 (ip), vehicle: saline with Tween-80
[14] = dose: 200.0 mg/kg/injection, schedule: Q01DX009 (ip), vehicle: saline with Tween-80
[15] = dose: 400.0 mg/kg/injection, schedule: Q01DX009 (ip), vehicle: saline with Tween-80
[16] = dose: 100.0 mg/kg/injection, schedule: Q01DX001 (ip), vehicle: saline
[17] = dose: 400.0 mg/kg/injection, schedule: Q01DX001 (ip), vehicle: saline
[18] = dose: 100.0 mg/kg/injection, schedule: Q01DX001 (ip), vehicle: Klucel (hydroxypropylcellulose) (HPC)
[19] = dose: 200.0 mg/kg/injection, schedule: Q01DX001 (ip), vehicle: Klucel (hydroxypropylcellulose) (HPC)
[20] = dose: 400.0 mg/kg/injection, schedule: Q01DX001 (ip), vehicle: Klucel (hydroxypropylcellulose) (HPC)
[21] = dose: 100.0 mg/kg/injection, schedule: Q01DX001 (ip), vehicle: saline with Tween-80

Measured: T/C

O=C(NCCO)NCCO
inactive: [1] 95 % of control | dose: 200.0 mg/kg/injection, schedule: Q04DX003 (ip), vehicle: saline 98 % of control | dose: 400.0 mg/kg/injection, schedule: Q04DX003 (ip), vehicle: saline 123 % of control

CCCNC(=O)C1C2CCC(C2)C1C(=O)NCCC (centres undefined)
inactive: [2] 96 % of control | [3] 96 % of control | [4] 96 % of control

CC(=O)Nc1ccc(Cl)cc1C(=O)O
inactive: [5] 97 % of control | [6] 97 % of control | [7] 90 % of control | [8] 94 % of control | [9] 93 % of control | [10] 102 % of control

CCCCCCCCCCCCSC(=O)Nc1ccc([N+](=O)[O-])cc1Cl
inactive: [7] 107 % of control | [9] 102 % of control

CC(C)(N)CNc1ccccc1
inactive: dose: 25.0 mg/kg/injection, schedule: Q01DX009 (ip), vehicle: saline 98 % of control | dose: 25.0 mg/kg/injection, schedule: Q04DX003 (ip), vehicle: saline 97 % of control | [11] 98 % of control | dose: 50.0 mg/kg/injection, schedule: Q04DX003 (ip), vehicle: saline 92 % of control | [12] 100 % of control | [2] 98 % of control | [1] 105 % of control

C=CC1C(C(=O)Nc2ccccc2)CN1C (centres undefined)
inactive: [2] 107 % of control | [3] 107 % of control | [4] 116 % of control

Clc1ccc(C=Nc2cccc3ccccc23)cc1Cl
inactive: [13] 95 % of control | [14] 95 % of control | [15] 94 % of control

O=C(O)c1c(O)c2cc(Cl)ccc2oc1=O
inactive: [16] 98 % of control | [17] 98 % of control

Nc1ncc(CSCc2ccccc2)c(-c2ccccc2)n1
inactive: dose: 100.0 mg/kg/injection, schedule: Q04DX002 (ip), vehicle: saline with Tween-80 100 % of control | dose: 200.0 mg/kg/injection, schedule: Q04DX002 (ip), vehicle: saline with Tween-80 96 % of control | dose: 400.0 mg/kg/injection, schedule: Q04DX002 (ip), vehicle: saline with Tween-80 96 % of control

Clc1cccc(N=C/C=C/c2ccccc2)c1
inactive: dose: 100.0 mg/kg/injection, schedule: Q01DX001 (ip), vehicle: carboxymethylcellulose (CMC) 105 % of control | dose: 100.0 mg/kg/injection, schedule: Q01DX009 (ip), vehicle: carboxymethylcellulose (CMC) 96 % of control and 100 % of control | dose: 100.0 mg/kg/injection, schedule: Q04DX002 (ip), vehicle: carboxymethylcellulose (CMC) 94 % of control and 100 % of control | dose: 100.0 mg/kg/injection, schedule: Q04DX003 (ip), vehicle: carboxymethylcellulose (CMC) 92 % of control | dose: 200.0 mg/kg/injection, schedule: Q01DX001 (ip), vehicle: carboxymethylcellulose (CMC) 96 % of control | dose: 200.0 mg/kg/injection, schedule: Q01DX009 (ip), vehicle: carboxymethylcellulose (CMC) 107 % of control and 92 % of control | dose: 200.0 mg/kg/injection, schedule: Q04DX002 (ip), vehicle: carboxymethylcellulose (CMC) 95 % of control and 97 % of control | dose: 200.0 mg/kg/injection, schedule: Q04DX003 (ip), vehicle: carboxymethylcellulose (CMC) 96 % of control | dose: 400.0 mg/kg/injection, schedule: Q01DX001 (ip), vehicle: carboxymethylcellulose (CMC) 102 % of control | dose: 400.0 mg/kg/injection, schedule: Q01DX009 (ip), vehicle: carboxymethylcellulose (CMC) 103 % of control | dose: 400.0 mg/kg/injection, schedule: Q04DX002 (ip), vehicle: carboxymethylcellulose (CMC) 94 % of control and 98 % of control | dose: 400.0 mg/kg/injection, schedule: Q04DX003 (ip), vehicle: carboxymethylcellulose (CMC) 107 % of control

Cc1cccc(CNC(=O)NCCCl)c1C
inactive: [18] 100 % of control | [19] 97 % of control | [20] 95 % of control

CC1=CC(=O)C(C(O)(C(F)(F)Cl)C(F)(F)Cl)C(C)(C)C1 (centres undefined)
inactive: [5] 98 % of control | [2] 102 % of control | [7] 103 % of control | [3] 96 % of control | [9] 97 % of control | [4] 109 % of control

O=C(O)c1ccc(CCCCc2ccccc2)cc1
inactive: dose: 25.0 mg/kg/injection, schedule: Q01DX001 (ip), vehicle: saline with Tween-80 103 % of control | dose: 50.0 mg/kg/injection, schedule: Q01DX001 (ip), vehicle: saline with Tween-80 121 % of control | [21] 107 % of control

CCOc1cc(OCC)c(OCC)cc1C=C(C#N)C#N
inactive: [5] 91 % of control | [9] 88 % of control

Cc1nc(-c2ccc(N=Cc3ccc(N(CCCl)CCCl)cc3)cc2)cs1
inactive: [11] 101 % of control | [16] 101 % of control | [12] 104 % of control | dose: 200.0 mg/kg/injection, schedule: Q01DX001 (ip), vehicle: saline 90 % of control | dose: 200.0 mg/kg/injection, schedule: Q01DX009 (ip), vehicle: saline 98 % of control | [17] 89 % of control | dose: 400.0 mg/kg/injection, schedule: Q01DX009 (ip), vehicle: saline 102 % of control

COc1ccc(NC(=O)Oc2ccccc2C(N)=O)c(Cl)c1
inactive: dose: 100.0 mg/kg/injection, schedule: Q04DX002 (ip), vehicle: Klucel (hydroxypropylcellulose) (HPC) 96 % of control | dose: 200.0 mg/kg/injection, schedule: Q04DX002 (ip), vehicle: Klucel (hydroxypropylcellulose) (HPC) 104 % of control

Cc1ccnc(NC(C#N)c2ccccc2)c1 (centres undefined)
inactive: dose: 12.5 mg/kg/injection, schedule: Q01DX009 (ip), vehicle: saline with Tween-80 93 % of control | dose: 25.0 mg/kg/injection, schedule: Q01DX009 (ip), vehicle: saline with Tween-80 97 % of control | dose: 50.0 mg/kg/injection, schedule: Q01DX009 (ip), vehicle: saline with Tween-80 93 % of control and 100 % of control

c1ccc(C(c2ccccc2)(c2nccs2)n2ccnc2)cc1
inactive: [6] 95 % of control | [8] 98 % of control | [10] 104 % of control

COC(=O)/C=C/NC(=O)c1ccccc1C(=O)OC
inactive: [5] 98 % of control | [6] 94 % of control | [7] 96 % of control | [8] 103 % of control | [9] 109 % of control | [10] 100 % of control

CN(/N=N/c1nc[nH]c1C(=O)NN)C1CCCCC1
inactive: dose: 50.0 mg/kg/injection, schedule: Q01DX001 (ip), vehicle: other 95 % of control | dose: 100.0 mg/kg/injection, schedule: Q01DX001 (ip), vehicle: other 101 % of control | dose: 200.0 mg/kg/injection, schedule: Q01DX001 (ip), vehicle: other 98 % of control

C/C(Cl)=C1\CCCC\C1=N\NC(N)=O
inactive: [18] 95 % of control | [19] 98 % of control | [20] 102 % of control

CCCCCCCCCCCCCCCC(=O)N(CCC#N)c1ccc(N(CCC#N)C(=O)CCCCCCCCCCCCCCC)cc1
inactive: [21] 93 % of control | [13] 86 % of control | [2] 104 % of control | dose: 200.0 mg/kg/injection, schedule: Q01DX001 (ip), vehicle: saline with Tween-80 98 % of control | [14] 88 % of control | [3] 94 % of control | dose: 400.0 mg/kg/injection, schedule: Q01DX001 (ip), vehicle: saline with Tween-80 94 % of control | [15] 86 % of control | [4] 93 % of control
